Tested on: primary rat mixed cortical cells
Assay: In vitro myelination assay (MBP positive myelin strands, fold myelin pixels above background)
Format: cell-based
Conditions: Rattus norvegicus, read-out: Fold myelin pixels above background relative to baseline of no added compound; for fold induction at 1 µM: 1.0 μM compound; for fold induction at 10 µM: 10.0 μM compound
In short: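 Fourteen-day treatment of primary P1 rat mixed cortical cultures, re-dosed at days 6 and 10, at 1.0 μM and 10.0 μM. MBP immunofluorescence was imaged at 10× and myelin strands quantified by software, normalised to untreated wells as fold above background.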

SMILES	fold induction at 1 µM	fold induction at 10 µM
[2H]C1([2H])OC([2H])([2H])C([2H])([2H])N(c2cc(C)cc(Nc3ncn(-c4cc(F)cc(F)c4)n3)c2)C1([2H])[2H] [Compound 982, 1-(3,5-difluorophenyl)-N-[3-methyl-5-(2,2,3,3,5,5,6,6-octadeuteriomorpholin-4-yl)phenyl]-1,2,4-triazol-3-amine]	10 to 100	≤ 1
Cc1cc(Nc2ncn(-c3cc(F)cc(F)c3)n2)cc(N2CCC(CN3CCOCC3)C2)c1 (stereo not drawn) [Compound 983, 1-(3,5-difluorophenyl)-N-[3-methyl-5-[3-(morpholinomethyl)pyrrolidin-1-yl]phenyl]-1,2,4-triazol-3-amine]	1 to 10	1 to 10
Cc1cc(Nc2ncn(-c3cc(F)cc(F)c3)n2)cc(N2CCC(CN3CCOCC3)CC2)c1 [Compound 984, 1-(3,5-difluorophenyl)-N-[3-methyl-5-[4-(morpholinomethyl)-1-piperidyl]phenyl]-1,2,4-triazol-3-amine]	10 to 100	≤ 1
CCC(CNc1cc(C)cc(Nc2ncn(-c3cc(F)cc(F)c3)n2)c1)N1CCOCC1 (stereo not drawn) [Compound 985, N3-[1-(3,5-difluorophenyl)-1,2,4-triazol-3-yl]-5-methyl-N1-(2-morpholinobutyl)benzene-1,3-diamine]	1 to 10	1 to 10
Cc1cc(Nc2ncn(-c3cc(F)cc(F)c3)n2)cc(N2CC[C@H](N3CCCC3)C2)c1 [Compound 986, 1-(3,5-difluorophenyl)-N-[3-methyl-5-[(3S)-3-pyrrolidin-1-ylpyrrolidin-1-yl]phenyl]-1,2,4-triazol-3-amine]	1 to 10	≤ 1
CCN(CC)CCN1CCN(c2cc(C)cc(Nc3ncn(-c4cc(F)cc(F)c4)n3)c2)CC1 [Compound 987, N-[3-[4-[2-(diethylamino)ethyl]piperazin-1-yl]-5-methyl-phenyl]-1-(3,5-difluorophenyl)-1,2,4-triazol-3-amine]	1 to 10	≤ 1
Cc1cc(Nc2ncn(-c3cc(F)cc(F)c3)n2)cc(N2CCC(N3CCOCC3C)CC2)c1 (stereo not drawn) [Compound 988, 1-(3,5-difluorophenyl)-N-[3-methyl-5-[4-(3-methylmorpholin-4-yl)-1-piperidyl]phenyl]-1,2,4-triazol-3-amine]	10 to 100	1 to 10
Cc1cc(Nc2ncn(-c3cc(F)cc(F)c3)n2)c(F)c(N2CCN(C(CO)CO)CC2)c1 [Compound 989, 2-[4-[3-[[1-(3,5-difluorophenyl)-1,2,4-triazol-3-yl]amino]-2-fluoro-5-methyl-phenyl]piperazin-1-yl]propane-1,3-diol]	≤ 1	≤ 1
Cc1cc(Nc2ncn(-c3cc(F)cc(F)c3)n2)cc(N2CCN(CCCO)CC2)c1 [Compound 990, 3-[4-[3-[[1-(3,5-difluorophenyl)-1,2,4-triazol-3-yl]amino]-5-methyl-phenyl]piperazin-1-yl]propan-1-ol]	≤ 1	≤ 1
Cc1cc(Nc2ncn(-c3cc(F)cc(F)c3)n2)cc(N2CCN(C(=O)C3CCOCC3)CC2)c1 [Compound 991, [4-[3-[[1-(3,5-difluorophenyl)-1,2,4-triazol-3-yl]amino]-5-methyl-phenyl]piperazin-1-yl]-tetrahydropyran-4-yl-methanone]	10 to 100	1 to 10
Cc1cc(Nc2ncn(-c3cc(F)cc(F)c3)n2)cc(NC2CCN(CC(F)F)CC2)c1 [Compound 992, N1-[1-(2,2-difluoroethyl)-4-piperidyl]-N3-[1-(3,5-difluorophenyl)-1,2,4-triazol-3-yl]-5-methyl-benzene-1,3-diamine]	1 to 10	1 to 10
Cc1cc(NCC(=O)N2CCCC2)cc(Nc2ncn(-c3cc(F)cc(F)c3)n2)c1 [Compound 993, 2-[3-[[1-(3,5-difluorophenyl)-1,2,4-triazol-3-yl]amino]-5-methyl-anilino]-1-pyrrolidin-1-yl-ethanone]	1 to 10	10 to 100

Source: patent US10766869B2, “Triazoles for the treatment of demyelinating dieases” (Vertex Pharmaceuticals Incorporated, priority 2015, dated 2020)
